Experimental data published in patent US10407445B2, “Hepatitis C virus inhibitors” (ENANTA PHARMACEUTICALS, INC., priority 2013, dated 2019).

Tests used:
[1] = system: HCV genotype 1a replicon, NS5A M28V Q30R; assay: Transient replication assay, GT1a NS5A M28V Q30R; format: cell-based; settings: Hepatitis C virus
[2] = system: HCV genotype 1a replicon, NS5A Q30E; assay: Transient replication assay, GT1a NS5A Q30E; format: cell-based; settings: Hepatitis C virus
[3] = system: HCV genotype 1a replicon, NS5A Q30K; assay: Transient replication assay, GT1a NS5A Q30K; format: cell-based; settings: Hepatitis C virus
[4] = system: HCV genotype 1a replicon, NS5A P32L; assay: Transient replication assay, GT1a NS5A P32L; format: cell-based; settings: Hepatitis C virus
[5] = system: GT2a-6a-EUKH2 replicon; assay: Stable replicon assay, comparison to daclatasvir, GT2a-6a-EUKH2; format: cell-based; settings: Hepatitis C virus
Source text: The plasmid pSG-hRlucNeo-JFH1 was generated from pSG-Neo-JFH1 (Kato et al. 2003, Gastroentrology 125:1808-1817). A fragment containing the JFH-1 5′ NTR-hRluc-Neo gene and two unique restriction sites (AgeI and PmeI) was synthesized (Integrated DNA Technologies, Coralville, Iowa). The resulting plasmid was digested with AgeI and PmeI and the excised fragment (5′NTR-hRluc-Neo) was ligated into pSG-Neo-JFH1 digested with the same enzymes to generate pSG-hRlucNeo-JFH1. To allow expression of heterologous NS5A sequences, an NS5A shuttle vector was generated from pSG-Neo-JFH1, in which the entire coding sequence of NS5A plus the first eight codons of NS5B were replaced with an AfeI restriction site. This was done by Infusion cloning (Clontech, Mountain View, Calif.) from two PCR products that were generated using pSG-Neo-JFH1 as a template and the following primer pairs:
To express GT6a NS5A chimeric sequences a JFH1-based N-terminal NS5A (NS5A residues 2-107) shuttle vector was constructed by Infusion cloning from two PCR products that were generated using pSG-Neo-JFH1 as a template and the following primers: […]
Purified PCR products were inserted into an NsiI/SnaBI digested pSG-Neo-JFH1 vector by Infusion cloning following the manufacturer's instructions to generate pSG-Neo-JFH1-Nterm_5Ashuttle. […]

[6] = system: HCV genotype 1a replicon, NS5A M28V; assay: Transient replication assay, GT1a NS5A M28V; format: cell-based; settings: Hepatitis C virus
[7] = system: HCV genotype 1a replicon, NS5A K24N Q30R; assay: Transient replication assay, GT1a NS5A K24N Q30R; format: cell-based; settings: Hepatitis C virus
[8] = system: HCV genotype 1a replicon, NS5A L31V; assay: Transient replication assay, GT1a NS5A L31V; format: cell-based; settings: Hepatitis C virus
[9] = system: HCV genotype 1b replicon Huh7-lunet cells; assay: Resistance barrier analysis in HCV genotype 1b replicon cells (crystal violet staining); format: cell-based, Hepatitis C virus; settings: 2×EC50, 3 weeks in the presence of G418
Experimental: Stable HCV genotype 1b replicon Huh7-lunet cells were plated in 100 mm cell culture dishes (1.5×10^5 and 3×10^5 cells/dish for DMSO control and compound treated cells, respectively) and incubated for 24 hr (37° C., 5% CO2) prior to compound addition. Compounds (solubilized in DMSO) were prepared in complete media (0.5% DMSO final) and added to cells. Cells were maintained in the presence of compound (or DMSO) and G418 (500 μg/mL) for 3 weeks with media replacement two times per week. Cells were then fixed (4% paraformaldehyde, 30 min at room temperature) and stained (0.5% crystal violet/25% methanol, 20 min room temperature) to allow visualization of surviving cells. Plates were then washed with water to remove excess stain and left to air dry overnight prior to imaging (BioRad Gel Doc XR+Molecular Imager).
FIG. 1 illustrates comparison of a compound of the invention to daclatasvir in a test that provides a qualitative indication of the occurrence of resistance. […] The control plate, with DMSO alone (no compound 16 or daclatasvir), is almost completely opaque.

**Q.** With COC(=O)N[C@H](C(=O)N1C[C@]2(CCCOC2)C[C@H]1c1ncc(-c2ccc(-c3ccc4c(ccc5nc([C@@H]6C[C@@H]7CCC[C@@H]7N6C(=O)[C@@H](NC(=O)OC)C(C)C)[nH]c54)c3)cc2)[nH]1)C(C)C [Compound 16] as the compound, how does the EC50 [1] read?
**A.** 0.16 nM

**Q.** And the EC50 [2]?
**A.** 0.74 nM

**Q.** And the EC50 [3]?
**A.** 0.05 nM

**Q.** And the EC50 [4]?
**A.** 0.046 nM

**Q.** What about the EC50 [5] of the same compound?
**A.** 0.014 nM

**Q.** And the EC50 [6]?
**A.** 0.0015 nM

**Q.** What about the EC50 [7] of the same compound?
**A.** 1.2 nM

**Q.** And the EC50 [8]?
**A.** 0.15 nM

**Q.** What about the “surviving replicon cells (crystal violet staining)” value [9] of the same compound?
**A.** almost entirely prevented replicon cell survival

**Q.** Which results are given for COC(=O)N[C@H](C(=O)N1CCC[C@H]1c1nc(-c2ccc(-c3ccc(-c4c[nH]c([C@@H]5CCCN5C(=O)[C@@H](NC(=O)OC)C(C)C)n4)cc3)cc2)c[nH]1)C(C)C [Daclatasvir, reference compound]?
**A.** EC50 [1]: 1.2 nM; EC50 [2]: 81.5 nM; EC50 [3]: 7.9 nM; EC50 [4]: 1.9 nM; EC50 [5]: 0.143 nM; EC50 [6]: 0.0073 nM; EC50 [7]: 8 nM; EC50 [8]: 4.5 nM
